Data set [1] is described as follows: in vitro. The following applies: human. Here is the method: (§1) Briefly, HepG2 cells are seeded at 4×10^4/well on a 96-well plate in 100 μL growth medium and incubated for 24 h at 37° C. The medium is removed and the cells are washed with PBS. Treatments of fruit extracts or antioxidant compounds in 100 μL treatment medium (Williams' Medium E supplemented with 2 mM L-glutamine and 10 mM Hepes) are applied to the cells and the plates are incubated at 37° C. for 24 h. The treatment medium is removed and the cells are washed with PBS. A volume of 50 μL/well methylene blue staining solution (98% HBSS, 0.67% glutaraldehyde, 0.6% methylene blue) is applied to each well and the plate is incubated at 37° C. for 1 h.
(§2) Excess dye is removed by immersing the plate in fresh deionized water until the water appears clear. The excess water should be tapped out of the wells and the plate allowed to air-dry briefly before addition of 100 μL elution solution (49% PBS, 50% ethanol, 1% acetic acid) to each well. The microplate is then placed on a bench-top shaker for 20 minutes to allow uniform elution. The absorbance is read at 570 nm with blank subtraction using, for example a MRX II DYNEX spectrophotometer (DYNEX Inc., Chantilly, Va.). Concentrations of pure compounds or fruit extracts that decrease the absorbance by more than 10% when compared to the control are considered to be cytotoxic.
(§3) Cytotoxicity was measured using the method of Oliver et al. (31) with modifications by our laboratory (32). […] The medium was removed and the cells were washed with PBS. Treatments of fruit extracts or antioxidant compounds in 100 μL treatment medium (Williams' Medium E supplemented with 2 mM L-glutamine and 10 mM Hepes) were applied to the cells and the plates were incubated at 37° C. for 24 h. The treatment medium was removed and the cells were washed with PBS. A volume of 50 μL/well methylene blue staining solution (98% HBSS, 0.67% glutaraldehyde, 0.6% methylene blue) was applied to each well and the plate was incubated at 37° C. for 1 h. The dye was removed and the plate was immersed in fresh deionized water three times, or until the water was clear. The water was tapped out of the wells and the plate was allowed to air-dry briefly before 100 μL elution solution (49% PBS, 50% ethanol, 1% acetic acid) was added to each well. The microplate was placed on a bench-top shaker for 20 minutes to allow uniform elution. The absorbance was read at 570 nm with blank subtraction using the MRX II DYNEX spectrophotometer (DYNEX Inc., Chantilly, Va.). Concentrations of pure compounds or fruit extracts that decreased the absorbance by more than 10% when compared to the control were considered to be cytotoxic.
(§4) The median cytotoxic concentration (CC50) was calculated for each fruit.
(§5) Briefly, HepG2 cells were seeded at 4×10^4/well on a 96-well plate in 100 μL growth medium and incubated for 24 h at 37° C. The medium was removed, and the cells were washed with PBS. Flavonoids in 100 μL growth medium were applied to the cells, and the plates were incubated at 37° C. for 24 h. The medium was removed, and the cells were washed with PBS before a volume of 50 μL/well methylene blue staining solution (98% HBSS, 0.67% glutaraldehyde, 0.6% methylene blue) was applied to each well, and the plate was incubated at 37° C. for 1 h. The dye was removed, and the plate was immersed in fresh deionized water until the water was clear. The water was tapped out of the wells, and the plate was allowed to air-dry briefly before 100 μL of elution solution (49% PBS, 50% ethanol, 1% acetic acid) was added to each well. The microplate was placed on a benchtop shaker for 20 min to allow uniform
(§6) elution. The absorbance was read at 570 nm with blank subtraction using the MRX II Dynex spectrophotometer (Dynex Inc., Chantilly, Va.). The median cytotoxic concentration (CC50) was calculated for each flavonoid.

In data set [2] the test system is HepG2 cells. The data set can be described thus: in vitro. The following applies: for CC50: read-out: cytotoxicity CC50, Example 3, median cytotoxic concentration. As to the method:
as §1, §2, §3, §4, §5, §6

[3] abbreviates: Example 1, dose at which the cell number is reduced by more than 10% after 24 h treatment.

Some results are limits rather than exact numbers.

Regarding `O=C(O[C@@H]1Cc2c(O)cc(O)cc2O[C@@H]1c1ccc(O)c(O)c1)c1cc(O)c(O)c(O)c1` [ECG, (−)-epicatechin gallate], the CC50 at 24 h in data set [1] is > 200 µM. The same measure, in the same setting: next, `Oc1cc(O)c2c(c1)O[C@H](c1cc(O)c(O)c(O)c1)[C@H](O)C2` [EGC, (−)-epigallocatechin]: > 200 µM. On to `O=c1c(O)c(-c2ccc(O)cc2)oc2cc(O)cc(O)c12` [Kaempferol, kaempferol], for which the CC50 at 24 h in data set [1] is > 100 µM. Further, the “Cytotoxicity (cytotoxic concentration)” value in data set [2] (human, 24 h) worked out at 30 µM. For the molecule `O=c1cc(-c2ccc(O)c(O)c2)oc2cc(O)cc(O)c12` [Luteolin, luteolin], in data set [1], the CC50 at 24 h is > 80 µM. Also, the “Cytotoxicity (cytotoxic concentration)” value in data set [2] (human, 24 h) came out at 20 µM. The like results for `O=c1c(O)c(-c2cc(O)c(O)c(O)c2)oc2cc(O)cc(O)c12` [Myricetin, myricetin] were, in that order, > 200 µM and 200 µM.

In the case of `O=c1c(O[C@@H]2O[C@H](CO)[C@@H](O)[C@H](O)[C@H]2O)c(-c2ccc(O)c(O)c2)oc2cc(O)cc(O)c12` [Q-3-G, quercetin-3-β-D-glucoside], in data set [2] (24 h), the CC50 was > 200 µM. Regarding `O=c1c(O)c(-c2ccc(O)c(O)c2)oc2cc(O)cc(O)c12` [Quercetin, quercetin], the CC50 at 24 h in data set [1] is > 100 µM. The “Cytotoxicity (cytotoxic concentration)” value in data set [2] (human, 24 h) is >20 µM. Turning to `O=C1c2c(O)cc(O)cc2O[C@H](c2ccc(O)c(O)c2)[C@H]1O` [Taxifolin, taxifolin], in data set [1] (HepG2 cells), the CC50 at 24 h was > 200 µM. In addition, the “Cytotoxicity (cytotoxic concentration)” value in data set [2] (setting [3]) came to 150 µM. With `O=c1c(O)c(-c2ccccc2)oc2cc(O)cc(O)c12` [galangin], in data set [1] (HepG2 cells), the CC50 at 24 h is > 80 µM.

As to `O=c1c(-c2ccc(O)cc2)coc2cc(O)cc(O)c12` [genistein], the CC50 at 24 h in data set [1] is > 100 µM. Regarding `O=c1c(O)c(-c2ccc(O)cc2O)oc2cc(O)cc(O)c12` [morin], the CC50 at 24 h in data set [1] (HepG2 cells) was > 200 µM. For `O=C1C[C@@H](c2ccc(O)cc2)Oc2cc(O)cc(O)c21` [naringenin], the CC50 at 24 h in data set [1] (HepG2 cells) was > 200 µM.

Turning to (−)-epigallocatechin gallate [EGCG], the “Cytotoxicity (cytotoxic concentration)” value in data set [2] (setting [3]) was >100 µM. Also, in data set [2] (24 h), the CC50 is > 100 µM.

The values above are taken from US20110313672A1, “CELLULAR ANTIOXIDANT ACTIVITY (CAA) ASSAY” (CORNELL UNIVERSITY, priority 2007, published 2011).
